Experimental data taken from ChEMBL document CHEMBL3045835, “Comparative study of conventional and microwave-assisted synthesis of some Schiff bases and their potential as antimicrobial agents” (2012).
≈ marks a conversion by molar mass, not a printed value.

What was measured:
Format in all cases: functional
Penicillium chrysogenum [1] = assay: Antifungal activity against Penicillium chrysogenum MTCC 161 at 500 ug/ml after 18 hr by cup-plate method; settings: MTCC 161, 18 h, read-out: DIZ
Penicillium chrysogenum [2] = assay: Antifungal activity against Penicillium chrysogenum MTCC 161 at 1000 ug/ml after 18 hr by cup-plate method; settings: MTCC 161, 18 h, read-out: DIZ
Micrococcus luteus [3] = assay: Antibacterial activity against Micrococcus luteus MTCC 1538 at 500 ug/ml after 18 hr by cup-plate method; settings: MTCC 1538, 18 h, read-out: DIZ
Pseudomonas aeruginosa [4] = assay: Antibacterial activity against Pseudomonas aeruginosa MTCC 424 at 1500 ug/ml after 18 hr by cup-plate method; settings: MTCC 424, 18 h, read-out: DIZ
Staphylococcus aureus [5] = assay: Antibacterial activity against Staphylococcus aureus MTCC 1430 at 1500 ug/ml after 18 hr by cup-plate method; settings: MTCC 1430, 18 h, read-out: DIZ
Pseudomonas fluorescens [6] = assay: Antibacterial activity against Pseudomonas fluorescens MTCC 2421 at 1500 ug/ml after 18 hr by cup-plate method; settings: MTCC 2421, 18 h, read-out: DIZ
Aspergillus niger [7] = assay: Antifungal activity against Aspergillus niger MTCC 2546 after 24 hr by broth dilution method; settings: MTCC 2546, 24 h
Pseudomonas fluorescens [8] = assay: Antibacterial activity against Pseudomonas fluorescens MTCC 2421 at 200 ug/ml after 18 hr by cup-plate method; settings: MTCC 2421, 18 h, read-out: DIZ
Micrococcus luteus [9] = assay: Antibacterial activity against Micrococcus luteus MTCC 1538 at 100 ug/ml after 18 hr by cup-plate method; settings: MTCC 1538, 18 h, read-out: DIZ
Bacillus subtilis [10] = assay: Antibacterial activity against Bacillus subtilis MTCC 441 after 24 hr by broth dilution method; settings: MTCC 441, 24 h
Pseudomonas fluorescens [11] = assay: Antibacterial activity against Pseudomonas fluorescens MTCC 2421 at 100 ug/ml after 18 hr by cup-plate method; settings: MTCC 2421, 18 h, read-out: DIZ
Staphylococcus aureus [12] = assay: Antibacterial activity against Staphylococcus aureus MTCC 1430 at 100 ug/ml after 18 hr by cup-plate method; settings: MTCC 1430, 18 h, read-out: DIZ
Escherichia coli [13] = assay: Antibacterial activity against Escherichia coli MTCC 1573 at 1500 ug/ml after 18 hr by cup-plate method; settings: MTCC 1573, 18 h, read-out: DIZ
Penicillium chrysogenum [14] = assay: Antifungal activity against Penicillium chrysogenum MTCC 161 at 1500 ug/ml after 18 hr by cup-plate method; settings: MTCC 161, 18 h, read-out: DIZ
Micrococcus luteus [15] = assay: Antibacterial activity against Micrococcus luteus MTCC 1538 at 200 ug/ml after 18 hr by cup-plate method; settings: MTCC 1538, 18 h, read-out: DIZ
Pseudomonas fluorescens [16] = assay: Antibacterial activity against Pseudomonas fluorescens MTCC 2421 at 1000 ug/ml after 18 hr by cup-plate method; settings: MTCC 2421, 18 h, read-out: DIZ
Pseudomonas fluorescens [17] = assay: Antibacterial activity against Pseudomonas fluorescens MTCC 2421 after 24 hr by broth dilution method; settings: MTCC 2421, 24 h
Escherichia coli [18] = assay: Antibacterial activity against Escherichia coli MTCC 1573 at 1000 ug/ml after 18 hr by cup-plate method; settings: MTCC 1573, 18 h, read-out: DIZ
Micrococcus luteus [19] = assay: Antibacterial activity against Micrococcus luteus MTCC 1538 after 24 hr by broth dilution method; settings: MTCC 1538, 24 h
Penicillium chrysogenum [20] = assay: Antifungal activity against Penicillium chrysogenum MTCC 161 after 24 hr by broth dilution method; settings: MTCC 161, 24 h
Aspergillus niger [21] = assay: Antifungal activity against Aspergillus niger MTCC 2546 at 500 ug/ml after 18 hr by cup-plate method; settings: MTCC 2546, 18 h, read-out: DIZ
Escherichia coli [22] = assay: Antibacterial activity against Escherichia coli MTCC 1573 after 24 hr by broth dilution method; settings: MTCC 1573, 24 h
Bacillus pumilus [23] = assay: Antibacterial activity against Bacillus pumilus MTCC 1456 after 24 hr by broth dilution method; settings: MTCC 1456, 24 h
Pseudomonas fluorescens [24] = assay: Antibacterial activity against Pseudomonas fluorescens MTCC 2421 at 500 ug/ml after 18 hr by cup-plate method; settings: MTCC 2421, 18 h, read-out: DIZ
Staphylococcus aureus [25] = assay: Antibacterial activity against Staphylococcus aureus MTCC 1430 at 200 ug/ml after 18 hr by cup-plate method; settings: MTCC 1430, 18 h, read-out: DIZ
Micrococcus luteus [26] = assay: Antibacterial activity against Micrococcus luteus MTCC 1538 at 1500 ug/ml after 18 hr by cup-plate method; settings: MTCC 1538, 18 h, read-out: DIZ
Staphylococcus aureus [27] = assay: Antibacterial activity against Staphylococcus aureus MTCC 1430 at 500 ug/ml after 18 hr by cup-plate method; settings: MTCC 1430, 18 h, read-out: DIZ
Staphylococcus aureus [28] = assay: Antibacterial activity against Staphylococcus aureus MTCC 1430 at 1000 ug/ml after 18 hr by cup-plate method; settings: MTCC 1430, 18 h, read-out: DIZ
Pseudomonas aeruginosa [29] = assay: Antibacterial activity against Pseudomonas aeruginosa MTCC 424 after 24 hr by broth dilution method; settings: MTCC 424, 24 h
Escherichia coli [30] = assay: Antibacterial activity against Escherichia coli MTCC 1573 at 500 ug/ml after 18 hr by cup-plate method; settings: MTCC 1573, 18 h, read-out: DIZ
Staphylococcus aureus [31] = assay: Antibacterial activity against Staphylococcus aureus MTCC 1430 after 24 hr by broth dilution method; settings: MTCC 1430, 24 h
Aspergillus niger [32] = assay: Antifungal activity against Aspergillus niger MTCC 2546 at 1000 ug/ml after 18 hr by cup-plate method; settings: MTCC 2546, 18 h, read-out: DIZ
Micrococcus luteus [33] = assay: Antibacterial activity against Micrococcus luteus MTCC 1538 at 1000 ug/ml after 18 hr by cup-plate method; settings: MTCC 1538, 18 h, read-out: DIZ
Aspergillus niger [34] = assay: Antifungal activity against Aspergillus niger MTCC 2546 at 1500 ug/ml after 18 hr by cup-plate method; settings: MTCC 2546, 18 h, read-out: DIZ
Penicillium chrysogenum [35] = assay: Antifungal activity against Penicillium chrysogenum MTCC 161 at 100 ug/ml after 18 hr by cup-plate method; settings: MTCC 161, 18 h, read-out: DIZ
Aspergillus niger [36] = assay: Antifungal activity against Aspergillus niger MTCC 2546 at 100 ug/ml after 18 hr by cup-plate method; settings: MTCC 2546, 18 h, read-out: DIZ
Bacillus subtilis [37] = assay: Antibacterial activity against Bacillus subtilis MTCC 441 at 100 ug/ml after 18 hr by cup plate method; settings: MTCC 441, 18 h, read-out: DIZ
Pseudomonas aeruginosa [38] = assay: Antibacterial activity against Pseudomonas aeruginosa MTCC 424 at 100 ug/ml after 18 hr by cup-plate method; settings: MTCC 424, 18 h, read-out: DIZ
Bacillus pumilus [39] = assay: Antibacterial activity against Bacillus pumilus MTCC 1456 at 100 ug/ml after 18 hr by cup-plate method; settings: MTCC 1456, 18 h, read-out: DIZ
Escherichia coli [40] = assay: Antibacterial activity against Escherichia coli MTCC 1573 at 100 ug/ml after 18 hr by cup-plate method; settings: MTCC 1573, 18 h, read-out: DIZ

C(=N\c1ccccn1)/c1cccc2ccccc12
zone of inhibition at 500 µg/mL (Penicillium chrysogenum [1]): 10 mm
zone of inhibition at 1000 µg/mL (Penicillium chrysogenum [2]): 12 mm
zone of inhibition at 500 µg/mL (Micrococcus luteus [3]): 17 mm
zone of inhibition at 1500 µg/mL (Pseudomonas aeruginosa [4]): 15 mm
zone of inhibition at 1500 µg/mL (Staphylococcus aureus [5]): 20 mm
zone of inhibition at 1500 µg/mL (Pseudomonas fluorescens [6]): 19 mm
MIC (Aspergillus niger [7]): 500 µg/mL (≈ 2150 µM)
zone of inhibition at 200 µg/mL (Pseudomonas fluorescens [8]): 13 mm
zone of inhibition at 100 µg/mL (Micrococcus luteus [9]): 11 mm
MIC (Bacillus subtilis [10]): 500 µg/mL (≈ 2150 µM)
zone of inhibition at 100 µg/mL (Pseudomonas fluorescens [11]): 11 mm
zone of inhibition at 100 µg/mL (Staphylococcus aureus [12]): 11 mm
zone of inhibition at 1500 µg/mL (Escherichia coli [13]): 16 mm
zone of inhibition at 1500 µg/mL (Penicillium chrysogenum [14]): 17 mm
zone of inhibition at 200 µg/mL (Micrococcus luteus [15]): 12 mm
zone of inhibition at 1000 µg/mL (Pseudomonas fluorescens [16]): 17 mm
MIC (Pseudomonas fluorescens [17]): 300 µg/mL (≈ 1290 µM)
zone of inhibition at 1000 µg/mL (Escherichia coli [18]): 14 mm
MIC (Micrococcus luteus [19]): 400 µg/mL (≈ 1720 µM)
MIC (Penicillium chrysogenum [20]): 500 µg/mL (≈ 2150 µM)
zone of inhibition at 500 µg/mL (Aspergillus niger [21]): 12 mm
MIC (Escherichia coli [22]): 400 µg/mL (≈ 1720 µM)
MIC (Bacillus pumilus [23]): 500 µg/mL (≈ 2150 µM)
zone of inhibition at 500 µg/mL (Pseudomonas fluorescens [24]): 15 mm
zone of inhibition at 200 µg/mL (Staphylococcus aureus [25]): 12 mm
zone of inhibition at 1500 µg/mL (Micrococcus luteus [26]): 24 mm
zone of inhibition at 500 µg/mL (Staphylococcus aureus [27]): 14 mm
zone of inhibition at 1000 µg/mL (Staphylococcus aureus [28]): 16 mm
MIC (Pseudomonas aeruginosa [29]): 500 µg/mL (≈ 2150 µM)
zone of inhibition at 500 µg/mL (Escherichia coli [30]): 11 mm
MIC (Staphylococcus aureus [31]): 400 µg/mL (≈ 1720 µM)
zone of inhibition at 1000 µg/mL (Aspergillus niger [32]): 13 mm
zone of inhibition at 1000 µg/mL (Micrococcus luteus [33]): 20 mm
zone of inhibition at 1500 µg/mL (Aspergillus niger [34]): 15 mm

OC(Cn1cncn1)(Cn1cncn1)c1ccc(F)cc1F [FLUCONAZOLE]
zone of inhibition at 100 µg/mL (Penicillium chrysogenum [35]): 16 mm
zone of inhibition at 100 µg/mL (Aspergillus niger [36]): 28 mm

CCn1cc(C(=O)O)c(=O)c2cc(F)c(N3CCNCC3)cc21 [NORFLOXACIN]
zone of inhibition at 100 µg/mL (Bacillus subtilis [37]): 23 mm
zone of inhibition at 100 µg/mL (Micrococcus luteus [9]): 26 mm
MIC (Bacillus subtilis [10]): 50 µg/mL (≈ 157 µM)
zone of inhibition at 100 µg/mL (Pseudomonas fluorescens [11]): 25 mm
zone of inhibition at 100 µg/mL (Pseudomonas aeruginosa [38]): 28 mm
zone of inhibition at 100 µg/mL (Staphylococcus aureus [12]): 25 mm
MIC (Pseudomonas fluorescens [17]): 50 µg/mL (≈ 157 µM)
MIC (Micrococcus luteus [19]): 50 µg/mL (≈ 157 µM)
zone of inhibition at 100 µg/mL (Bacillus pumilus [39]): 28 mm
zone of inhibition at 100 µg/mL (Escherichia coli [40]): 36 mm
MIC (Escherichia coli [22]): 50 µg/mL (≈ 157 µM)
MIC (Bacillus pumilus [23]): 50 µg/mL (≈ 157 µM)
MIC (Pseudomonas aeruginosa [29]): 50 µg/mL (≈ 157 µM)
MIC (Staphylococcus aureus [31]): 50 µg/mL (≈ 157 µM)
